{
  "source": "patent US20120100135A1",
  "about": "“GENETIC POLYMORPHISMS ASSOCIATED WITH CLINICAL OUTCOMES OF TOPOISOMERASE INHIBITOR THERAPY FOR CANCER” (University of Southern California, priority 2009, published 2012)",
  "tested_on": "mCRC patients",
  "experiment": "Phase III EPIC trial subgroup (US sites, 186 genotyped patients): IR/CB (arm A) vs IR alone (arm B), second line after failure of FOLFOX",
  "assay_type": "in vivo, human",
  "protocol": "This study was to test functional germline polymorphisms involved in the EGFR—(EGF, EGFR), angiogenesis—(VEGF, IL-8, CXCR-2)—and drug-metabolism related genes (UGT1A1, MTHFR) for their potential role as molecular predictors for clinical outcome in patients treated with CB/IR vs. IR alone.\nMaterial and Methods: DNA was extracted from all available formalin-fixed paraffin-embedded tumor samples from the phase III EPIC trial (US sites only). Genotyping was performed using PCR-RFLP assays and 5′-end [g-33P] ATP′ labeled PCR-protocols.\nResults: 186 patients were treated either with IR/CB (arm A, 84 patients) or IR (arm B, 102 patients) only. […] It was found an EGFR-CA-repeat in intron I in arm A was associated with PFS (p=0.031, log-rank test) (Table 2). In arm A, a significant association with […] (RR) (p=0.0103, Fisher's exact test) for MTHFR 1298 was found (Table 3). […] Furthermore, MTHFR 677 and MTHFR 1298 was associated with OS (adjusted p=0.028 and 0.026, respectively, Cox-proportional hazards models), independent from K-ras mutation status, race and number of disease sites.",
  "data": [
    {"smiles": "CCc1c2c(nc3ccc(OC(=O)N4CCC(N5CCCCC5)CC4)cc13)-c1cc3c(c(=O)n1C2)COC(=O)[C@]3(O)CC", "note": "[IR, Irinotecan]", "values": [
      {"measurement": "Median PFS", "setting": "95% CI", "result": 2.7, "unit": "months"},
      {"measurement": "median overall survival (OS)", "setting": "95% CI", "result": 12.3, "unit": "months"},
      {"measurement": "patients showing CR or PR", "setting": "arm A n=84, arm B n=102", "result": 6, "unit": "%"},
      {"measurement": "patients with SD or PD", "setting": "arm A n=84, arm B n=102", "result": 94, "unit": "%"}
    ]}
  ]
}
